Legend:
diabetic mice = settings: cited from earlier work
insulin = assay: Western blot of insulin levels in islets in culture; assay type: cell-based, mouse; settings: islets exposed to increasing amounts of iron citrate alone (FIG. 12A)
Procedure: (§1) Western Blotting. The mouse islets were treated with CPX 20 μM for 24 h and lysed in RIPA buffer [50 mM Tris, pH 7.2; 150 mM NaCl; 1% sodium deoxycholate; 0.1% SDS; 1% Triton-X 100; 10 mM NaF; 1 mM Na3VO4; protease inhibitor cocktail (1:1000, Sigma, St. Louis, Mo.)] and were subjected to immunoblot analysis by standard methods. Proteins were resolved on a 10% SDS-PAGE and transferred to a nitrocellulose membrane (Bio-Rad, Hercules, Calif.). Membranes were probed overnight with GADD153 (F-168), sc-575 from Santa Cruz Biotechnology (1:50); p21 (F-5), sc-6246 from Santa Cruz Biotechnology (1:200); actin, clone C4 MAB1501 from Millipore (Billerica, Mass., USA) (1:2000); BiP antibody (cat. no. 3183) from Cell Signaling (Danvers, Mass., USA) (1:1000); GRP94 antibody (H-212), sc-11402 from Santa Cruz Biotechnology (1:500); insulin rabbit polyclonal H-86, sc-9168 from Santa Cruz Biotechnology (1:500) antibodies followed by incubation with horseradish peroxidase-conjugated (HRP) anti-mouse (1:10000), goat anti-rabbit IgG (1:10000, Santa Cruz biotechnology Inc., Santa Cruz, Calif., USA) for 1 hr. After incubation with enhanced chemiluminescence reagents (Santa Cruz biotechnology Inc.), membranes were analyzed using an Image J software for Windows.
(§2) In order to understand better how CPX operates in β cells, it was tested to determine if it affected the efficiency by which insulin is produced following glucose stimulation. […] In view of the antidiabetic activity of CPX in vivo, the inhibition of insulin release appears contradictory. […]
(§3) While modulation of insulin release by CPX constitutes a challenging mechanism by which CPX may affect ER stress, how CPX regulates insulin expression remains obscure. […] To test this hypothesis, islets were exposed to iron citrate, alone or combined with CPX, and the levels were recorded of chaperones BiP, GRP94 and CHOP, as well as of insulin.

BiP, GRP94 and CHOP = assay: Western blot of ER stress markers in islets in culture; assay type: cell-based, mouse; settings: islets exposed to increasing amounts of iron citrate alone (FIG. 12A)
Procedure: as §1, §2, §3

| Compound | effect on diabetes (diabetic mice; mice, stimulation of p53/p21 activity) | response of diabetes to treatment (diabetic mice; p21-deficient diabetic mice) | insulin production (insulin) | ER stress-markers BiP, GRP94 and CHOP (BiP, GRP94 and CHOP) |
| --- | --- | --- | --- | --- |
| COc1ccc(C2=N[C@@H](c3ccc(Cl)cc3)[C@@H](c3ccc(Cl)cc3)N2C(=O)N2CCNC(=O)C2)c(OC(C)C)c1 [nutlin-3a] | beneficial for diabetes in mice | unresponsive to nutlin-3a | – | – |
| iron citrate | – | – | triggered insulin production | induced ER stress-markers BiP, GRP94 and CHOP |
